Active and inactive are the calls of the source.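 How the source made its calls: active means compounds giving half or more protection of infected cells from virus-caused growth loss, again on retest; inactive means the rest.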
System: CEM cells HIV-1 protection, formazan growth assay
Experiment: NCI AIDS Antiviral Assay
Conditions: for IC50: measured here: growth of uninfected CEM cells
Outline: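 Steps: treat uninfected and HIV-1-infected human CEM cells at five drug levels; quantify growth by soluble formazan; retest any compound reaching 50% protection; classify actives from the retest.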

Row | SMILES | outcome | EC50 [µM] | IC50 [µM]
1 | NCCCNCCSSC/C=C\CSSCCNCCCN | inactive |  | 
2 | S=C1NC2(CCCCCC2)NN1c1ccccc1 |  | > 100 | 30.9
3 | CCn1c2c(c3ccccc31)[C@@H](c1ccc(Cl)cc1)CC1C(=O)N(c3ccccc3)C(=O)C21 (stereo partly specified) |  | > 11.5 | > 11.5
4 | OCCCSCCCCSCCCO |  | > 41.7 | > 41.7
5 | Cc1cc(N(CCC#N)CCC#N)ccc1N=Nc1ccc(Br)cc1 |  | > 6.92 | > 6.92
6 | O=C1C=CC[C@H]2O[C@@H](COC(=O)Cc3ccccc3)C[C@H]2O1 |  | > 200 | 34.7
7 | Clc1ccc(Cl)c(-c2csc(-c3cccnc3)n2)c1 |  | > 200 | 36.3
8 | CC1(C)CNC(=S)S1 |  | > 339 | > 339
9 | Cn1c(=O)c2cc(O)cnc2n(C)c1=O |  | > 200 | > 200
10 | CC(C)[C@](O)(C(=O)OCC1=CCN2CC[C@@H](O)[C@@H]12)[C@H](C)O |  | > 417 | > 417
11 | N#Cc1nc(N)c(C#N)[nH]1 | inactive |  | 
12 | N#Cc1sc2c(c1OC(=O)c1ccco1)c(=O)n(-c1ccccc1)c(=S)n2-c1ccccc1 |  | > 200 | 12.3
13 | CC12CCC(CC(=O)/C1=C(/Br)I)C2(C)C (stereo unspecified) |  | > 200 | 36.3
14 | N.N.N.N.O=C([O-])C(Cl)Cl.O=C([O-])C(Cl)Cl.[Co+3].[O-][Cl+3]([O-])([O-])[O-] | inactive |  | 
15 | COc1ccc(/C=C2/CCCC/C2=N/O)cc1 |  | > 295 | 182
16 | O=C(CNc1ccccc1Cl)Nn1c(-c2ccccc2)nc2ccccc2c1=O |  | > 200 | 30.2
17 | C=CCCCC12CCCc3cccc(c31)NC2=O (stereo unspecified) |  | > 151 | 63.1
18 | COc1ccc(-c2cc(=O)c3ccccc3o2)c(OC)c1OC |  | > 200 | 31.6
19 | C#CCCOC1(OC)N=NC(C)(C)O1 (stereo unspecified) |  | > 200 | > 200
20 | CC(=O)Oc1ccc(-c2oc3c([C@H]4C=C(C)CC(c5ccc(OC(C)=O)cc5OC(C)=O)[C@@H]4C(=O)c4ccc(OC(C)=O)c(CC=C(C)C)c4O)c(OC(C)=O)cc(O)c3c(=O)c2CC=C(C)C)c(OC(C)=O)c1 (stereo partly specified) |  | > 5.13 | > 5.13
21 | O=c1cc(N2CCN(c3cc(=O)n4ccccc4n3)CC2)oc2ccccc12 |  | > 200 | > 200
22 | COC(=O)C1=C2Nc3ccccc3C23CCN2C(=O)C[C@H](C1)[C@@H]23 (stereo partly specified) | inactive |  | 

Row | SMILES | outcome | EC50 [µM] | IC50 [µM]
23 | CCCCCCCCCCCCCCCCCCNC(=O)OCC(CNS(=O)(=O)CCC[n+]1cccc2ccccc21)COC (stereo unspecified) |  | > 200 | 0.676
24 | CCOC(=O)/C(=C\c1ccc(F)cc1)[Se]c1ccccc1 |  | > 38.9 | > 38.9
25 | Cc1cccc(/C=C2\CCCc3ccccc3C2=O)c1 |  | > 200 | 11.2
26 | Cc1ccc(-n2c3nc(=O)n(C)c(=O)c-3cc3c(OCc4ccccc4)cccc32)cc1 |  | > 19.5 | > 19.5
27 | N=c1c2ccccc2nnn1Cc1ccccc1 |  | > 178 | > 178
28 | COc1cccc(/C=N/[N-]C(N)=O)c1[O-].[OH3+].[Zn+2] |  | > 447 | 132
29 | CC1(C)CC23C4COC(=O)C2CCC1C3CC4=O (stereo unspecified) |  | > 117 | 4.07
30 | Cc1nc(N)nc(N)c1-c1ccc(Cl)c(Cl)c1 |  | > 200 | 
31 | CCn1cc(C(=O)O)c(=O)c2ccc(C)nc21 | inactive |  | 
32 | CCN=C(c1ccc(NC(=O)c2ccc(C(=O)Nc3ccc(C(=NCC)N(CC)CC)cc3)cc2)cc1)N(CC)CC |  | > 200 | 64.6
33 | CC1C2CC(CC2=O)C1(C)C (stereo unspecified) |  | > 1620 | > 1620
34 | Cc1ccc(Oc2ccc(C)cc2N)cc1 | inactive |  | 
35 | COc1c2occc2c(N=Cc2ccc([N+](=O)[O-])cc2)c2ccc(=O)oc12 |  | > 34.7 | > 34.7
36 | CC(C)(C)C(C#N)(C#N)c1ccc(C(C#N)(C#N)C(C)(C)C)nn1 | inactive |  | 
37 | C/C=C(\C)c1cc(OC)c(C)c2c1C(=O)Oc1c(C)c(O)c(Cl)c(/C(C)=C/C)c1O2 | inactive |  | 
38 | CC(=O)NNc1nc(C)c(C(/C=C/c2ccccc2O)=N/NC(=O)c2ccncc2)s1 |  | > 22.4 | > 22.4
39 | Cc1cccc2c(=O)c3ccccc3oc12 |  | > 170 | > 170
40 | CN(C)/N=N/c1nc2c(c(=O)n(C)c(=O)n2C)n1CC1CO1 (stereo unspecified) |  | > 200 | 12
41 | O=P(O)(O)OC1C(OP(=O)(O)O)C(OP(=O)(O)O)C(OP(=O)(O)O)C(OP(=O)(O)O)C1OP(=O)(O)O.[Zn+2] (stereo unspecified) |  | > 100 | > 100
42 | CC12CCC(O)CC1=CCC1C2CCC2(C)C3=NN=CC3CC12 (stereo unspecified) |  | > 200 | 12
43 | O=S(=O)(O)c1ccc2c(c1)Sc1cc(S(=O)(=O)O)ccc1O2 | inactive |  | 
44 | CCOC(=O)C(=O)Nc1ccccc1OCC |  | > 209 | > 209

Row | SMILES | outcome | EC50 [µM] | IC50 [µM]
45 | C=CCN1C2Cc3cc(OC)c(OC)cc3C1Cc1cc(OC)c(OC)cc12 |  | > 603 | 135
46 | COc1ccc2nc3ccc(OC)cc3c(S(=O)Cc3ccccc3)c2c1 (stereo unspecified) |  | > 200 | 1.23
47 | C[n+]1cccc2ccc3cccnc3c21 |  | > 200 | 7.94
48 | COC(=O)Cc1c(-c2c(CC(=O)OC)c3ccccc3n2C2OC(COC(C)=O)C(OC(C)=O)C(OC(C)=O)C2OC(C)=O)[nH]c2ccccc12 (stereo unspecified) |  | > 200 | 26.3
49 | Cc1nc(N)sc1C(=O)/C=C\c1ccc2c(c1)OCO2 |  | > 871 | 437
50 | Cc1ccc(OCC2OC(n3cnc4nc(N)nc(Cl)c43)CC2Oc2ccc(C)cc2)cc1 (stereo unspecified) |  | > 200 | > 200
51 | CCN(CC)CCCC(C)Nc1c2cc(OC)cc(C)c2nc2c(C)c(Cl)ccc12 (stereo unspecified) | inactive |  | 
52 | CCOc1ccc(N(CC(=O)N2CC(=O)Nc3cc(C)c(C)cc32)C(C)=O)cc1 |  | > 13.2 | > 13.2
53 | CC[C@@H]1C[C@@H](O)[C@@H]2[C@H](O)[C@H](O)CN2C1 |  | > 200 | > 200
54 | CCC1c2ccccc2[C@H]2C(c3ccccc3)=NN(c3ccccc3)[C@H]2N1CC (stereo partly specified) |  | > 200 | 56.2
55 | c1ccc2sc(SSSc3nc4ccccc4s3)nc2c1 |  | 14.1 | 34.7
56 | CC(C)=CCC(O)[C@](C)(O)[C@H]1[C@H](O)C[C@@]2(C)[C@@H]3CCc4cc(O)c(OC5OC(CO)C(O)C(O)C5O)cc4C3(C)C(=O)C[C@]12C (stereo partly specified) |  | > 200 | > 200
57 | Cc1ccc(/C=N/NC2=NCCN2)s1 |  | > 200 | 166
58 | COc1ccc2c(c1)[n+](=O)c(C(C)=O)c(C)n2[O-] |  | > 1000 | 355
59 | C=CCOC(C)n1c(C)c(Br)c(=O)[nH]c1=O (stereo unspecified) | inactive |  | > 200
60 | C=CC(C)(CC/C=C(\C)CCC=C(C)C)c1cc(O)c(O)c(-c2cc(C(C)(C=C)CC/C=C(\C)CCC=C(C)C)cc(O)c2O)c1 (stereo unspecified) |  | > 5.75 | > 5.75
61 | O=c1c2cccc3cccc(c4n1CCN=4)c32 |  | > 200 | 20.9
62 | O=S(=O)(Sc1ccccc1)C(c1ccccc1)c1ccccc1 |  | > 132 | 21.4
63 | C/C(=N\Nc1ncnc2ccccc12)c1ccccn1 |  | > 0.2 | 0.0257
64 | C=CCC12CC(=O)CCC1c1ccc(OC)cc1C2=O (stereo unspecified) |  | > 251 | 141
65 | N#CC(Cc1ccccc1)C(N)=O (stereo unspecified) |  | > 200 | > 200
66 | O=C(O)c1ccc[n+](CC(=O)c2ccc(O)c(O)c2)c1 |  | 0.0631 | > 200

From PubChem BioAssay AID179 (DTP/NCI, 2004)
